Square brackets hold non-standard residues; d marks the D form. Peptide text beside a SMILES is read from it.
How the values were obtained:
small α-syn PFF = experiment: 100 kDa MWCO size-based fractionation of small α-syn PFF followed by ELISA; assay type: biochemical, Human; conditions: 200 nM PFF, 72 h, 37 °C, n = 3
Protocol: Fig. 4 SVD-1a disassembles small α-syn PFF seeds into α-syn monomers. Small α-syn PFF seeds were prepared as described previously. […] A and B Time-dependent DLS measurements with 200 nM small α-syn PFF seeds in the absence (A) and presence (B) of 500 nM SVD-1a. 1 ml sample was continuously measured in a sealed quartz cuvette at 37 °C under quiescent conditions every 60 s for 72 h in a SpectroSize 300 instrument (XtalConcepts, GE). Data are shown as a radius plot where the signal amplitude of each particle size is represented by the data point diameter. C One-phase exponential decay fit of “200 nM PFF + 500 nM SVD-1a” shown in (B). […] PFF and monomer samples that were incubated without SVD-1a served as controls. α-Syn was detected with the antibody Syn211. […] In the upper part of the blot, above the marker range, PFFs were detected, using a longer exposure time due to a weaker signal (see Supplementary Fig. 11 for the whole blot image with different exposure times). F Size-based fractionation by centrifugal concentration followed by ELISA quantification. […] After incubation, the samples were fractioned using a 100 kDa MWCO centrifugal concentrator (Merck, Microcon DNA Fast Flow 100 MWCO). α-Syn content of flow through (red) and retentate (blue) was quantified using an α-syn specific ELISA (BioLegend, Human α-Synuclein (Colorimetric), 448607). […]

[1] = tested on: α-synA53T–YFP cells (HEK293T)
[2] = tested on: α-synuclein monomer seeded with small α-syn PFF; experiment: CD spectroscopy of the seeded aggregation assay; assay type: biochemical; conditions: 30 µM SVD-1a, 500 nM PFF, 15 µM α-syn monomer, PBS pH 7.4, 37 °C, 24 h
Protocol: Far-UV circular dichroism (CD) data were collected using a Jasco J-1100 spectropolarimeter (Jasco, GE). 350 µl samples were pooled and loaded into a high precision quartz cuvette with a path length of 1 mm (Hellma group, GE). A scan speed of 20 nm/min with five accumulations per sample was performed using far UV wavelengths from 260 to 190 nm. Baseline was corrected by subtracting measurements of the reference sample only.
Supplementary Fig. 13: Analysis of the seeded aggregation assay in the presence and absence of SVD-1a using circular dichroism (CD) spectroscopy. Small α-syn PFF (500 nM) were incubated in PBS (pH 7.4) at 37 °C under quiescent conditions for 24 hours, either alone or in the presence of 15 µM α-synuclein monomer and/or 30 µM SVD-1a. For each condition and time point, three replicates (each 120 µl) were pooled and analyzed by CD spectroscopy at 0, 2, 8, and 24 hours. Far-UV ellipticity was measured in a quartz cuvette (path length = 10 mm) using a J-1100 CD spectrometer (Jasco, GE). […] (D) Co-incubation of 500 nM α-synuclein PFFs with 15 µM α-synuclein monomer induced a structural transition towards β-sheet formation, as reflected in the CD spectrum (referenced to spectrum in (A)).

`CC[C@@H](C)[C@@H](NC(=O)[C@@H](Cc1c[nH]cn1)NC(=O)[C@@H](CCC(=O)O)NC(=O)[C@@H](CCC(N)=O)NC(=O)[C@@H](Cc1c[nH]c2ccccc12)NC(=O)[C@@H](Cc1ccc(O)cc1)NC(=O)[C@H](NC(=O)[C@@H](CCC(=O)O)NC(=O)[C@@H](Cc1c[nH]cn1)NC(=O)[C@H](NC(=O)[C@H]1CCCN1C(=O)[C@@H](CC(C)C)NC(=O)[C@H](N)CCCNC(=N)N)[C@H](C)O)[C@H](C)O)C(=O)N[C@H](Cc1c[nH]c2ccccc12)C(=O)N[C@H](Cc1c[nH]cn1)C(=O)N[C@H](C)C(=O)N[C@H](CCCNC(=N)N)C(=O)N[C@H](CCCNC(=N)N)C(=O)N[C@H](CCCNC(=N)N)C(=O)N[C@H](CCCNC(=N)N)C(=O)N[C@H](CCCNC(=N)N)C(N)=O` [SVD-1a] (H-[dR][dL][dP][dT][dH][dE][dT][dY][dW][dQ][dE][dH][dI][dW][dH][dA][dR][dR][dR][dR][dR]-NH2) was tested, and the “α-syn fraction in retentate / eluate” value (small α-syn PFF; increasing SVD-1a, 100 kDa MWCO, ELISA) was “concentration-dependent decrease of the α-syn fraction in the retentate—corresponding to small α-syn PFF—and an increase in the eluate”, the “α-syn distribution vs monomer control” value (small α-syn PFF; 1000 nM SVD-1a) was “shows the same distribution as the monomer control” and the “cell viability, PFF-seeded α-synA53T–YFP cells” value [1] was “did not induce significantly different luminescence in comparison to unseeded cells or seeded cells without peptide treatment”. For the same molecule, the “α-syn secondary structure under seeded conditions” value [2] was “stabilized the α-synuclein monomer in its random coil conformation throughout the incubation period”.
